According to ChEMBL document CHEMBL1142990, “Self-organizing maps for identification of new inhibitors of P-glycoprotein” (J Med Chem, 2007):

The compounds below were run against ATP-dependent translocase ABCB1 (Homo sapiens, UniProt P08183) (assay: Inhibition of P-glycoprotein expressed in MDR CCRF vcr1000 cells by daunorubicin efflux assay).
Chain of ATP-dependent translocase ABCB1 (P08183 whole entry): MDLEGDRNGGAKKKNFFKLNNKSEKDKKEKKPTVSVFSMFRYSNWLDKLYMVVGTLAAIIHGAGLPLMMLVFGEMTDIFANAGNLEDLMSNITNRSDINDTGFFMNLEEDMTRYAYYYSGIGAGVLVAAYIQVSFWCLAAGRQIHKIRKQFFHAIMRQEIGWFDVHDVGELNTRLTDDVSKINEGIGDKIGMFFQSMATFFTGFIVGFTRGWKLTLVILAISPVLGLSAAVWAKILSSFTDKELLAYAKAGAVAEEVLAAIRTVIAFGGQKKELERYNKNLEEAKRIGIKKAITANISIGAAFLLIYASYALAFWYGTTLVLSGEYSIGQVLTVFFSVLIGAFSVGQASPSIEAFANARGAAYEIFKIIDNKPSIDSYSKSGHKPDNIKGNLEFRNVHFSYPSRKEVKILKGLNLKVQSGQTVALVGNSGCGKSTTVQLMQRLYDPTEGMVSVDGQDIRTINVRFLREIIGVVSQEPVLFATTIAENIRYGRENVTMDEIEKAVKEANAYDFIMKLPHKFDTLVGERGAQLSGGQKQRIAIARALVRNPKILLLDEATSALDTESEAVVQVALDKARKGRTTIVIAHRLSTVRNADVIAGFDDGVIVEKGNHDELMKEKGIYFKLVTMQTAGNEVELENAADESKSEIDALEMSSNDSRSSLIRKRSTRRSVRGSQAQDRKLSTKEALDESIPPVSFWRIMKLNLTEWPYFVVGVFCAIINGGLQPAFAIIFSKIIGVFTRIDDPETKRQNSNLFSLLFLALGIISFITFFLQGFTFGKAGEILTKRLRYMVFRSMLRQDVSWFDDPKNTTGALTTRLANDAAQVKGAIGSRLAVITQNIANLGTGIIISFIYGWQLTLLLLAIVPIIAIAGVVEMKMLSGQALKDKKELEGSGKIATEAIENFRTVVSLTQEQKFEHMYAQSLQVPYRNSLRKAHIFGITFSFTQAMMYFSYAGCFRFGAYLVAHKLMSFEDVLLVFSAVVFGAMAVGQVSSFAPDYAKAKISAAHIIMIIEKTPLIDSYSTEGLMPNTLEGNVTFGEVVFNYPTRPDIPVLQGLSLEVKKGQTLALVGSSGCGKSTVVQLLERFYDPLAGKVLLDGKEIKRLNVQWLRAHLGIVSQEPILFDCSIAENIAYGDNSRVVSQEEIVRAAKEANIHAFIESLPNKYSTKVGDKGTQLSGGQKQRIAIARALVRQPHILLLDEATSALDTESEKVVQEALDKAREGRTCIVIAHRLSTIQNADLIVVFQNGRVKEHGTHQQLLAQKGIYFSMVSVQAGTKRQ

Row | Compound | EC50 [nM]
1 | CC(C)N(CC(O)COc1ccccc1C(O)CCc1ccccc1)C(C)C (stereo not given) | 1740
2 | Cc1ccccc1N1CCN(CC(O)COc2ccccc2C(=O)CCc2ccccc2)CC1 (stereo not given) | 27
3 | O=C(CCc1cccc2ccccc12)c1ccccc1OCC(O)CN1CCOCC1 (stereo not given) | 730
4 | COC(CCc1ccccc1)c1ccccc1OCC(O)CN1CCOCC1 (stereo not given) | 1810
5 | O=C(CCc1ccccc1)c1cc(O)ccc1OCC(O)CN1CCCCC1 (stereo not given) | 1730
6 | CC(=O)c1cccc(OCC(O)CN2CCOCC2)c1 (stereo not given) | 128000
7 | COc1ccc(C2Nc3ccccc3C(=O)N2c2ccc(Oc3ccccc3)cc2)cc1 (stereo not given) | 1000
8 | CC(C)OC(CCc1ccccc1)c1ccccc1OCC(O)CN1CCCCC1 (stereo not given) | 460
9 | c1ccc(CCC2c3ccccc3OC2CN2CCCCC2)cc1 (stereo not given) | 1620
10 | COc1ccccc1N1CCN(CC(O)c2oc3ccccc3c2CCc2ccccc2)CC1 (stereo not given) | 177
11 | COc1ccc(N2CCN(CC(O)COc3ccccc3C(=O)CCc3ccccc3)CC2)cc1 (stereo not given) | 256
12 | CC(=O)c1cccc(OCC(O)CN2CCN(c3ccc(F)cc3)CC2)c1 (stereo not given) | 10100
13 | O=C(c1ccccc1)c1ccccc1OCC(O)CN1CCC(O)(c2ccccc2)CC1 (stereo not given) | 307
14 | Cn1cc(I)c(C(=O)NNC(=O)c2ccnn2C)n1 | > 500000
15 | O=C(CCc1cccc2ccccc12)c1ccccc1OCC(O)CNCCC(c1ccccc1)c1ccccc1 (stereo not given) | 723
16 | CC(=O)c1c(C)cc(C)c(CSc2nc3ccc(NC(=O)c4cccc5ccccc45)cc3s2)c1C | 110
17 | CC1c2ccccc2OC1C(=O)N1CCCCC1 (stereo not given) | 104000
18 | CCOc1ccc(N2C(=O)c3ccccc3NC2c2ccc(N(C)C)cc2)cc1 (stereo not given) | 25100
19 | O=C(CCc1ccccc1)c1cccc(OCC(O)CN2CCCCC2)c1 (stereo not given) | 424
20 | CC1c2ccccc2OC1CN1CCCCC1 (stereo not given) | 48900
21 | Cc1ccccc1N1CCN(CC(O)COc2ccc(Cl)cc2C(=O)CCc2ccccc2)CC1 (stereo not given) | 59
22 | COC(CCc1ccccc1)c1ccccc1OCC(O)CN1CCN(c2ccc(F)cc2)CC1 (stereo not given) | 226
23 | O=C(CCc1cccc2ccccc12)c1ccccc1OCC(O)CN1CCC(O)(c2ccccc2)CC1 (stereo not given) | 75
24 | Cc1ccccc1N1CCN(CC(O)COc2ccccc2C(=O)CCc2ccc(N(C)C)cc2)CC1 (stereo not given) | 13
25 | Cc1ccccc1N1CCN(CC(O)COc2cc(Cl)c(Cl)cc2C(=O)CCc2ccccc2)CC1 (stereo not given) | 17
26 | CCN(CC)CC(O)COc1ccccc1C(=O)c1ccccc1 (stereo not given) | 2320
27 | CC(=O)c1ccc(OCC(O)CN2CCOCC2)cc1 (stereo not given) | 302000

Row | Compound | EC50 [nM]
28 | O=C(CCc1ccccc1)c1cc(OCc2ccccc2)ccc1OCC(O)CN1CCCCC1 (stereo not given) | 172
29 | CC(=O)c1ccc(OCC(O)CNCCC(c2ccccc2)c2ccccc2)cc1 (stereo not given) | 178
30 | CCCNCC(O)COc1ccc(O)cc1C(=O)CCc1ccccc1 (stereo not given) [5-HYDROXY PROPAFENONE] | 3020
31 | O=C(CCc1ccccc1)c1ccccc1OCC(O)CNc1ccc(C(F)(F)F)cc1 (stereo not given) | 8490
32 | CCOCCOC(=O)c1ccc(N)cc1 | 312000
33 | CC(=O)c1cccc(OCC(O)CN2CCCCC2)c1 (stereo not given) | 9070
34 | CC(=O)c1cc(C)ccc1OCC(O)CN1CCCCC1 (stereo not given) | 5470
35 | O=C(CCc1ccccc1)c1ccc(OCC(O)CNCCC(c2ccccc2)c2ccccc2)cc1 (stereo not given) | 505
36 | Cc1cccc(N2CCN(CC(O)COc3cccc(C(=O)CCc4ccccc4)c3)CC2)c1C (stereo not given) | 137
37 | O=C(CCc1ccccc1)c1ccccc1OCC(O)CN1CCC(O)(c2ccccc2)CC1 (stereo not given) | 58
38 | CC1Cc2cccc(OCC(O)CN3CCCCC3)c2C1=O (stereo not given) | 9680
39 | O=C(CCc1ccccc1)c1ccccc1OCC(O)CNC1CCCCC1 (stereo not given) | 341
40 | CCCN(C)CC(O)COc1ccccc1C(=O)CCc1ccccc1 (stereo not given) | 416
41 | Clc1ccccc1-c1nc(N2CCCC2)c2ccccc2n1 | 5940
42 | CC(C)(C)c1ccc(C(=O)Nc2ccc3nc(SCc4cccc5ccccc45)sc3c2)cc1 | > 20000
43 | CC(C)(C)c1ccc(N2C(=O)c3ccccc3NC2c2ccc3c(c2)OCO3)cc1 (stereo not given) | 730
44 | CC(=O)c1cccc(OCC(=O)CN2CCN(c3cccc(C)c3C)CC2)c1 | 379
45 | Cc1ccccc1N1CCN(CC(O)COc2cccc(C(=O)CCc3ccccc3)c2)CC1 (stereo not given) | 74
46 | CC(=O)c1ccccc1OCC(O)CN1CCCCC1 (stereo not given) | 32000
47 | O=C(CCc1ccccc1)c1ccccc1OCCCN1CCCCC1 | 651
48 | O=C(CCc1ccccc1)c1ccc(OCC(O)CN2CCN(c3ccc(F)cc3)CC2)cc1 (stereo not given) | 2540
49 | CN(C)CC(O)COc1ccccc1C(=O)CCc1ccccc1 (stereo not given) | 2480
50 | CC(=O)c1ccc(OCC(O)CN2CCCCC2)cc1 (stereo not given) | 49000
51 | COc1ccc(CCC(=O)c2ccccc2OCC(O)CN2CCN(c3ccccc3C)CC2)cc1 (stereo not given) | 14
52 | CN(C)c1ccc(-c2nc(C(F)(F)F)nc(C(F)(F)F)n2)cc1 | > 100000
53 | O=C(CCc1ccccc1)c1cccc(OCC(O)CN2CCN(c3ccc(F)cc3)CC2)c1 (stereo not given) | 1120
54 | O=C(CCc1ccccc1)c1ccccc1OCC(O)CNCC(c1ccccc1)c1ccccc1 (stereo not given) | 797

Row | Compound | EC50 [nM]
55 | CCC(C)c1ccc(N2C(=O)c3ccccc3NC2c2ccc(C(C)C)cc2)cc1 (stereo not given) | 290
56 | O=C(N/N=C/c1c(F)cccc1Cl)C(=O)N1CCCCCC1 | 159000
57 | COc1ccc(CC(O)CO)cc1OC (stereo not given) | > 500000
58 | COc1ccc(-n2c(C3=NNC(=O)CC3)n[nH]c2=S)cc1 | > 250000
59 | CCC(C)c1ccc(C2Nc3ccccc3C(=O)N2c2ccc(Cl)cc2)cc1 (stereo not given) | 820
60 | O=C(CCc1ccccc1)c1ccccc1OCC(O)CN(C(c1ccccc1)c1ccccc1)C(c1ccccc1)c1ccccc1 (stereo not given) | 10400
61 | Cc1ccccc1N1CCN(CC(O)COc2ccccc2C(=O)CCc2ccc(Cl)cc2)CC1 (stereo not given) | 19
62 | CCCN(CC(O)COc1ccccc1C(=O)CCc1ccccc1)C(=O)c1ccccc1 (stereo not given) | 1690
63 | CC(=O)c1ccccc1OCC(O)CN1CCC(O)(c2ccccc2)CC1 (stereo not given) | 3200
64 | COc1ccc(C2Nc3ccccc3C(=O)N2c2ccc(NC(C)=O)cc2)cc1 (stereo not given) | 20900
65 | Cc1ccc(OCC(O)CN2CCN(c3ccccc3C)CC2)c(C(=O)CCc2ccccc2)c1 (stereo not given) | 26
66 | O=C(CCc1ccccc1)c1ccccc1OCC(O)CN1CCN(c2ccccc2)CC1 (stereo not given) | 610
67 | O=C(CCc1ccccc1)c1ccccc1OCC(O)CNCCC(c1ccccc1)c1ccccc1 (stereo not given) | 717
68 | CC(=O)OC(COc1ccccc1C(=O)CCc1ccccc1)CN1CCCCC1 (stereo not given) | 336
69 | O=C(CCc1ccccc1)c1ccccc1OCCCCCCCN1CCCCC1 | 179
70 | CCc1ccc(N2C(=O)c3ccccc3NC2c2ccc(OCc3ccccc3)cc2)cc1 (stereo not given) | > 100000
71 | CCCNC[C@@H](O)c1oc2ccccc2c1CCc1ccccc1 | 1100
72 | COC(CCc1ccccc1)c1ccccc1OCC(O)CNCCC(c1ccccc1)c1ccccc1 (stereo not given) | 752
73 | COc1ccc(OCC(O)CN2CCN(c3ccccc3C)CC2)c(C(=O)CCc2ccccc2)c1 (stereo not given) | 179
74 | CC(C)N(CC(O)COc1ccc(O)cc1C(=O)CCc1ccccc1)C(C)C (stereo not given) | 1040
75 | O=C1CC(CN2CCCCC2)Oc2ccccc21 (stereo not given) | 176000
76 | Cc1cc(C)n(-c2nnc(N/N=C\c3cccnc3)nn2)n1 | 158000
77 | CC(=O)c1ccccc1OCC(O)CN1CCC(Cc2ccccc2)CC1 (stereo not given) | 357
78 | O=C(CCc1ccccc1)c1ccccc1OCC(O)CNc1ccccc1 (stereo not given) | 6470
79 | CCCCOc1ccc(C(=O)Nc2ccc3nc(SCc4c(C)cc(C)c(C(C)=O)c4C)sc3c2)cc1 | 97
80 | CC(C)N(CC(O)COc1ccccc1C(=O)CCc1ccccc1)C(C)C (stereo not given) | 377
81 | O=C(CCc1ccccc1)c1cccc(OCC(O)CN2CCOCC2)c1 (stereo not given) | 3480

Row | Compound | EC50 [nM]
82 | O=C(CCc1ccccc1)c1ccccc1OCC(O)CN1CCN(C(=O)c2ccccc2)CC1 (stereo not given) | 130
83 | CC(C)C(NCC(O)COc1ccccc1C(=O)CCc1ccccc1)c1ccccc1 (stereo not given) | 210
84 | O=C(CCc1cccc2ccccc12)c1ccccc1OCC(O)CN1CCCCC1 (stereo not given) | 172
85 | CCOC(=O)C(=NNc1c(Cl)cc(Cl)cc1Cl)C(=O)OCC | 17700
86 | O=C1c2c(cccc2OCC(O)CN2CCCCC2)CC1Cc1ccccc1 (stereo not given) | 212
87 | COc1cccc(/C=N/NC(=O)C(=O)NC(C)(C)C)c1O | 102000
88 | OC(COc1ccccc1C(O)CCc1ccccc1)CN1CCCCC1 (stereo not given) | 901
89 | O=C(CCc1ccccc1)c1ccccc1OCC(O)CN1CCCCC1 (stereo not given) | 599
90 | CCCNC[C@H](O)c1oc2ccccc2c1CCc1ccccc1 | 1060
91 | O=C(CCc1ccccc1)c1ccccc1OCCN1CCCCC1 | 1450
92 | O=C(CCc1ccccc1)c1ccccc1OCCCCN1CCOCC1 | 1010
93 | COc1ccc(C(=O)CCc2ccccc2)c(OCC(O)CN2CCN(c3ccccc3C)CC2)c1 (stereo not given) | 296
94 | CC(C)(C)c1ccc(CSc2nc3ccc(NC(=O)c4ccc(C(C)(C)C)cc4)cc3s2)cc1 | > 50000
95 | O=C(CCc1ccccc1)c1cc(OCc2ccccc2)ccc1OCC(O)CN1CCN(Cc2ccccc2)CC1 (stereo not given) | 116
96 | O=C(CCc1ccccc1)c1ccccc1OCC(O)CNc1ccc([N+](=O)[O-])cc1 (stereo not given) | 2570
97 | CCC(=O)c1ccccc1OCC(O)CN1CCC(O)(c2ccccc2)CC1 (stereo not given) | 299
98 | CC(=O)c1c(C)cc(C)c(CSc2nc3ccc(NC(=O)CCc4ccccc4)cc3s2)c1C | 300
99 | O=C(CCc1ccccc1)c1ccccc1OCCCCN1CCCCC1 | 533
100 | Cc1cccc(N2CCN(CC(O)COc3ccc(C(=O)CCc4ccccc4)cc3)CC2)c1C (stereo not given) | 227
101 | CCC(C)c1ccc(N2C(=O)c3ccccc3NC2c2ccc(OC)cc2)cc1 (stereo not given) | 760
102 | CC(=O)c1c(C)cc(C)c(CSc2nc3ccc(NC(=O)c4ccc(C(C)(C)C)cc4)cc3s2)c1C | 280
103 | Cc1ccc(-c2n[nH]c3c2C(c2ccc(N(C)C)cc2)C(C#N)=C(N)O3)cc1 (stereo not given) | 3080
104 | c1ccc(CCc2c(CCN3CCCCC3)oc3ccccc23)cc1 | 980
105 | CCCNCC(O)c1oc2ccccc2c1CC (stereo not given) | 11500
